Where two headings read alike, the source gives them in different places.
How the values were obtained:
[1] = test system: SARS-CoV-2 pseudotyped lentivirus; assay: microbe, parasite or virus in culture; format: cell-based
[2] = test system: SARS-CoV-2 Victoria live virus (SARS-CoV-2/human/AUS/VIC01/2020); assay: microbe, parasite or virus in culture; format: cell-based
[3] = test system: SARS-CoV-2 pseudotyped lentivirus (Victoria); assay: microbe, parasite or virus in culture; format: cell-based; details: read-out: IC50 pseudoviral neutralization, Victoria
[4] = test system: SARS-CoV-2 pseudotyped lentivirus (Alpha); assay: microbe, parasite or virus in culture; format: cell-based; details: read-out: IC50 pseudoviral neutralization, Alpha
[5] = test system: SARS-CoV-2 pseudotyped lentivirus (Beta); assay: microbe, parasite or virus in culture; format: cell-based; details: read-out: IC50 pseudoviral neutralization, Beta
[6] = test system: SARS-CoV-2 pseudotyped lentivirus (Gamma); assay: microbe, parasite or virus in culture; format: cell-based; details: read-out: IC50 pseudoviral neutralization, Gamma
[7] = test system: SARS-CoV-2 pseudotyped lentivirus (Delta); assay: microbe, parasite or virus in culture; format: cell-based; details: read-out: IC50 pseudoviral neutralization, Delta
[8] = test system: SARS-CoV-2 pseudotyped lentivirus (Omicron); assay: microbe, parasite or virus in culture; format: cell-based; details: read-out: IC50 pseudoviral neutralization, Omicron
[9] = test system: SARS-CoV-2 Alpha live virus; assay: microbe, parasite or virus in culture; format: cell-based
[10] = test system: SARS-CoV-2 Gamma live virus; assay: microbe, parasite or virus in culture; format: cell-based; details: Severe acute respiratory syndrome coronavirus 2, read-out: IC50 live virus neutralization, Gamma
[11] = test system: SARS-CoV-2 Delta live virus; assay: microbe, parasite or virus in culture; format: cell-based
[12] = test system: SARS-CoV-2 Omicron live virus; assay: microbe, parasite or virus in culture; format: cell-based; details: Severe acute respiratory syndrome coronavirus 2, read-out: IC50 live virus neutralization, Omicron
SARS-CoV-2 M^pro [13] = molecular target: T1, SARS-CoV-2 M^pro (Severe acute respiratory syndrome coronavirus 2, UniProt P0DTD1); assay: biochemical
SARS-CoV-2 = details: cited from earlier work
SARS-CoV-2 M^pro [14] = molecular target: T1, SARS-CoV-2 M^pro; format: binding
[15] = Severe acute respiratory syndrome coronavirus 2, HEK293T/17, read-out: IC50, neutralization of SARS-CoV-2 pseudotyped lentivirus
[16] = Severe acute respiratory syndrome coronavirus 2, read-out: IC50, neutralization of Victoria live virus

NC(=O)c1ccc(N)cc1OC1CCN(CC(F)(F)F)CC1 [GEN626] gave an IC50 [1, 15] of over 50 µM and an IC50 [2, 16] of over 50 µM.

With CS(=O)(=O)c1ccccc1Oc1ccc(-c2ccc(S(N)(=O)=O)cc2)cc1 [GEN725] the IC50 [1, 15] was 18.7 µM and the IC50 [2, 16] was over 50 µM.

For C#CCN1CCC(CCNc2ccnc3ccccc23)CC1 [GEN727], the IC50 [1, 15] was 2.8 µM, the IC50 ([1]; read-out: IC50, neutralization of spike-containing pseudovirus across all VOCs) was 0.7 to 2.8 µM and the IC50 [3] was 2.8 ± 1.6 µM. It also gave an IC50 [4] of 2.4 ± 0.4 µM, an IC50 [5] of 1.1 ± 0.8 µM and an IC50 [6] of 0.7 ± 0.3 µM. The IC50 [7] was 2.2 ± 0.1 µM, the IC50 [8] was 2.7 ± 0.5 µM and the IC50 [2, 16] was 34.8 ± 2 µM. It also gave an IC50 ([2]; Severe acute respiratory syndrome coronavirus 2, read-out: IC50 live virus neutralization, Victoria) of 31.5 ± 2.6 µM, an IC50 ([2]; read-out: IC50 live virus neutralization, Victoria) of under 50 µM and an IC50 ([9]; Severe acute respiratory syndrome coronavirus 2, read-out: IC50 live virus neutralization, Alpha) of 33.8 ± 1.1 µM. It also gave an IC50 ([9]; read-out: IC50 live virus neutralization, Alpha) of under 50 µM, an IC50 [10] of 55.4 ± 8.9 µM and an IC50 ([11]; Severe acute respiratory syndrome coronavirus 2, read-out: IC50 live virus neutralization, Delta) of 39.1 ± 7.4 µM. It also gave an IC50 ([11]; read-out: IC50 live virus neutralization, Delta) of under 50 µM and an IC50 [12] of 130 ± 1.9 µM.

With Cn1nnnc1C1(c2cccc(Cl)c2)CCC1 [GEN777] the IC50 [1, 15] was over 50 µM and the IC50 [2, 16] was over 50 µM.

For OC1CCN(c2nc(Nc3ccc4c(c3)CCC4)nc(N3CCC(F)(F)CC3)n2)CC1 [GXA70], the IC50 (SARS-CoV-2 M^pro [13]) was 43 µM.

Molecule CN(c1nc(N2CCOCC2)nc(N2CCc3ccccc32)n1)C1CCC(NS(N)(=O)=O)CC1 (stereo not shown) [GXA112] has an IC50 (SARS-CoV-2 M^pro [13]) of 34.2 µM.

For CS(=O)(=O)c1cccc(C[C@H](NC(=O)c2c(Cl)cc3c(c2Cl)CCN(C(=O)c2ccc4ccoc4c2)C3)C(=O)O)c1 [Lifitegrast], the “antiviral potency against SARS-CoV-2 in vitro” value (SARS-CoV-2) is given as “dose-dependent antiviral potency”.

With CN(Cc1ccc(Cl)c(Cl)c1)c1ccc(S(N)(=O)=O)cn1 [Z68337194] the IC50 (SARS-CoV-2 M^pro [13]) was 35.5 µM and the “Binding to M^pro seen in crystal structure” value (SARS-CoV-2 M^pro [14]) was “bound in the active site pocket”.
